# Like-named read-outs stand apart in the source and are kept apart here.
# How the values were obtained:
# LoVo = assay: cells; conditions: for GI50: read-out: GI50 LOVO; for CC50: read-out: LC50 LOVO
# Method in brief: (§1)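 Colorimetric SRB read (490 nm) on triplicate wells after 48 h at 37 °C, 5% CO2. Dose range 10 to 10^−8 μg/ml; 5×10^3 cells/well pre-attached 18 h.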
# A-549 = assay: cells; conditions: for GI50: read-out: GI50 A549; for CC50: read-out: LC50 A549
# Method in brief: as §1
# HT-29 = assay: cells; conditions: for GI50: read-out: GI50 HT29; for CC50: read-out: LC50 HT29
# Method in brief: as §1
# SK-MEL-28 = assay: Inhibition of cells growth by colorimetric assay (SRB); conditions: for GI50: read-out: GI50 MEL-28; for CC50: read-out: LC50 MEL-28
# Method in brief: as §1
# PANC-1 = assay: as above; conditions: for GI50: read-out: GI50 PANC-1; for CC50: read-out: LC50 PANC-1
# Method in brief: as §1
# K-562 = assay: as above; conditions: for GI50: read-out: GI50 K562; for CC50: read-out: LC50 K562
# Method in brief: as §1
# IGROV-1 = assay: as above; conditions: for GI50: read-out: GI50 IGROV; for CC50: read-out: LC50 IGROV
# Method in brief: as §1
# DU-145 = assay: as above; conditions: for GI50: read-out: GI50 DU145; for CC50: read-out: LC50 DU145
# Method in brief: as §1
# IGROV-ET = assay: as above; conditions: for GI50: read-out: GI50 IGROV-ET; for CC50: read-out: LC50 IGROV-ET
# Method in brief: as §1
# HeLa-APL = assay: as above; conditions: for CC50: read-out: LC50 HELA-APL
# Method in brief: as §1
# LoVo-Dox = assay: as above; conditions: for GI50: read-out: GI50 LOVO-DOX; for CC50: read-out: LC50 LOVO-DOX
# Method in brief: as §1
# SK-BR-3 = assay: as above; conditions: for GI50: read-out: GI50 SK-BR3; for CC50: read-out: LC50 SK-BR3
# Method in brief: as §1
# HeLa = assay: as above; conditions: for GI50: read-out: GI50 HELA; for CC50: read-out: LC50 HELA
# Method in brief: as §1
# LNCaP = assay: as above; conditions: for GI50: read-out: GI50 LNCAP; for CC50: read-out: LC50 LNCAP
# Method in brief: as §1
# [1] = IGROV-ET, SRB, 48 hours exposure
# [2] = HELA-APL, SRB, 48 hours exposure
# [3] = LOVO-DOX, SRB, 48 hours exposure
compound,measurement,setting,value
C=CCN1[C@@H]2c3c(cc(C)c(OC)c3O)C[C@H]1[C@H](C#N)N1C2[C@@H]2SCC(NC(=O)CCCCCCCCCCCCCCC)C(=O)OC[C@H]1c1c3c(c(C)c(OC(C)=O)c12)OCO3 (stereo partly shown) [compound 26],GI50,"LoVo; Homo sapiens, LoVo, 48 h",11.6 µM
same,CC50,"LoVo; Homo sapiens, LoVo, 48 h",11.6 µM
same,IC (TGI),"LoVo; Homo sapiens, LoVo, 48 h, read-out: TGI LOVO",11.6 µM
same,GI50,"A-549; Homo sapiens, A549, 48 h",11.6 µM
same,CC50,"A-549; Homo sapiens, A549, 48 h",11.6 µM
same,IC (TGI),"A-549; Homo sapiens, A549, 48 h, read-out: TGI A549",11.6 µM
same,GI50,"HT-29; Homo sapiens, HT-29, 48 h",11.6 µM
same,CC50,"HT-29; Homo sapiens, HT-29, 48 h",11.6 µM
same,IC (TGI),"HT-29; Homo sapiens, HT-29, 48 h, read-out: TGI HT29",11.6 µM
same,GI50,"SK-MEL-28; Homo sapiens, SK-MEL-28, 48 h",11.6 µM
same,CC50,"SK-MEL-28; Homo sapiens, SK-MEL-28, 48 h",11.6 µM
same,IC (TGI),"SK-MEL-28; Homo sapiens, SK-MEL-28, 48 h, read-out: TGI MEL-28",11.6 µM
same,GI50,"PANC-1; Homo sapiens, PANC-1, 48 h",11.6 µM
same,CC50,"PANC-1; Homo sapiens, PANC-1, 48 h",11.6 µM
same,IC (TGI),"PANC-1; Homo sapiens, PANC-1, 48 h, read-out: TGI PANC-1",11.6 µM
same,GI50,"K-562; Homo sapiens, K562, 48 h",2.3 µM
same,CC50,"K-562; Homo sapiens, K562, 48 h",10.6 µM
same,IC (TGI),"K-562; Homo sapiens, K562, 48 h, read-out: TGI K562",4.94 µM
same,GI50,"IGROV-1; Homo sapiens, IGROV-1, 48 h",6.84 µM
same,CC50,"IGROV-1; Homo sapiens, IGROV-1, 48 h",11.6 µM
same,IC (TGI),"IGROV-1; Homo sapiens, IGROV-1, 48 h, read-out: TGI IGROV",11.6 µM
same,GI50,"DU-145; Homo sapiens, DU-145, 48 h",11.6 µM
same,CC50,"DU-145; Homo sapiens, DU-145, 48 h",11.6 µM
same,IC (TGI),"DU-145; Homo sapiens, DU-145, 48 h, read-out: TGI DU145",11.6 µM
same,GI50,"IGROV-ET; Homo sapiens, 48 h",11.6 µM
same,CC50,"IGROV-ET; Homo sapiens, 48 h",11.6 µM
same,IC (TGI),"IGROV-ET; Homo sapiens, 48 h, read-out: TGI IGROV-ET",11.6 µM
same,CC50,"HeLa-APL; Homo sapiens, 48 h",11.6 µM
same,GI50,"LoVo-Dox; Homo sapiens, 48 h",11.6 µM
same,CC50,"LoVo-Dox; Homo sapiens, 48 h",11.6 µM
same,IC (TGI),"LoVo-Dox; Homo sapiens, 48 h, read-out: TGI LOVO-DOX",11.6 µM
same,GI50,"SK-BR-3; Homo sapiens, SK-BR-3, 48 h",4.23 µM
same,CC50,"SK-BR-3; Homo sapiens, SK-BR-3, 48 h",11.6 µM
same,IC (TGI),"SK-BR-3; Homo sapiens, SK-BR-3, 48 h, read-out: TGI SK-BR3",9.2 µM
same,GI50,"HeLa; Homo sapiens, HeLa, 48 h",11.6 µM
same,CC50,"HeLa; Homo sapiens, HeLa, 48 h",11.6 µM
same,IC (TGI),"HeLa; Homo sapiens, HeLa, 48 h, read-out: TGI HELA",11.6 µM
same,GI50,"LNCaP; Homo sapiens, LNCaP, 48 h",3.82 µM
same,CC50,"LNCaP; Homo sapiens, LNCaP, 48 h",11.6 µM
same,IC (TGI),"LNCaP; Homo sapiens, LNCaP, 48 h, read-out: TGI LNCAP",11.6 µM
C=CCN1C2Cc3cc(C)c(OC)c(O)c3C1C1C3SCC(NC(=O)CC)C(=O)OCC(c4c5c(c(C)c(OC(C)=O)c43)OCO5)N1C2C#N (stereo not shown) [compound 27],TGI LOVO,"LoVo; LOVO, SRB, 48 hours exposure",2.36E−07 Molar
same,GI50,"LoVo; LOVO, SRB, 48 hours exposure",0.0804 µM
same,CC50,"LoVo; LOVO, SRB, 48 hours exposure",0.707 µM
same,TGI A549,"A-549; A549, SRB, 48 hours exposure",2.06E−07 Molar
same,GI50,"A-549; A549, SRB, 48 hours exposure",0.0626 µM
same,CC50,"A-549; A549, SRB, 48 hours exposure",1.89 µM
same,TGI HT29,"HT-29; HT29, SRB, 48 hours exposure",1.42E−06 Molar
same,GI50,"HT-29; HT29, SRB, 48 hours exposure",0.0756 µM
same,CC50,"HT-29; HT29, SRB, 48 hours exposure",14.2 µM
same,TGI MEL-28,"SK-MEL-28; MEL-28, SRB, 48 hours exposure",1.34E−07 Molar
same,GI50,"SK-MEL-28; MEL-28, SRB, 48 hours exposure",0.0614 µM
same,CC50,"SK-MEL-28; MEL-28, SRB, 48 hours exposure",0.594 µM
same,TGI PANC-1,"PANC-1; PANC-1, SRB, 48 hours exposure",1.45E−06 Molar
same,GI50,"PANC-1; PANC-1, SRB, 48 hours exposure",0.0928 µM
same,CC50,"PANC-1; PANC-1, SRB, 48 hours exposure",14.2 µM
same,TGI K562,"K-562; K562, SRB, 48 hours exposure",5.66E−08 Molar
same,GI50,"K-562; K562, SRB, 48 hours exposure",0.0217 µM
same,CC50,"K-562; K562, SRB, 48 hours exposure",0.206 µM
same,TGI IGROV,"IGROV-1; IGROV, SRB, 48 hours exposure",1.02E−07 Molar
same,GI50,"IGROV-1; IGROV, SRB, 48 hours exposure",0.0407 µM
same,CC50,"IGROV-1; IGROV, SRB, 48 hours exposure",1.02 µM
same,TGI DU145,"DU-145; DU145, SRB, 48 hours exposure",8.48E−07 Molar
same,GI50,"DU-145; DU145, SRB, 48 hours exposure",0.0755 µM
same,CC50,"DU-145; DU145, SRB, 48 hours exposure",14.2 µM
same,TGI IGROV-ET,IGROV-ET; [1],3.87E−07 Molar
same,GI50,IGROV-ET; [1],0.165 µM
same,CC50,IGROV-ET; [1],0.915 µM
same,TGI HELA-APL,HeLa-APL; [2],3.04E−07 Molar
same,GI50,"HeLa-APL; read-out: GI50 HELA-APL, HELA-APL, SRB, 48 hours exposure",0.0951 µM
same,CC50,HeLa-APL; [2],0.951 µM
same,TGI LOVO-DOX,LoVo-Dox; [3],1.42E−05 Molar
same,GI50,LoVo-Dox; [3],0.431 µM
same,CC50,LoVo-Dox; [3],14.2 µM
same,TGI SK-BR3,"SK-BR-3; SK-BR3, SRB, 48 hours exposure",1.97E−07 Molar
same,GI50,"SK-BR-3; SK-BR3, SRB, 48 hours exposure",0.0558 µM
same,CC50,"SK-BR-3; SK-BR3, SRB, 48 hours exposure",1.05 µM
same,TGI HELA,"HeLa; HELA, SRB, 48 hours exposure",2.75E−07 Molar
same,GI50,"HeLa; HELA, SRB, 48 hours exposure",0.0978 µM
same,CC50,"HeLa; HELA, SRB, 48 hours exposure",0.786 µM
same,TGI LNCAP,"LNCaP; LNCAP, SRB, 48 hours exposure",6.46E−08 Molar
same,GI50,"LNCaP; LNCAP, SRB, 48 hours exposure",0.0261 µM
same,CC50,"LNCaP; LNCAP, SRB, 48 hours exposure",0.261 µM

# — patent publication US7767659B2, “Synthesis of naturally occurring ecteinascidins and related compounds” (Pharma Mar, S.A., priority 2002, dated 2010)
